Measurements taken from ChEMBL document CHEMBL4699579, “A Peptidyl Inhibitor that Blocks Calcineurin-NFAT Interaction and Prevents Acute Lung Injury” (J Med Chem, 2020).
Activity calls are given as the source filed them. The calls are words filed in the database; no cut-off is given here. Positions of bridges follow the written chain, without caps; N, C: chain ends. Non-standard residues stand in square brackets, D forms with d. Residues, ends and D or L forms follow the SMILES beside them. Chains are numbered I, II in the order given. *: point of attachment. 2Nal = N[C@@H](Cc1ccc2ccccc2c1)C(=O)O; Val(3-OH) = CC(C)(O)[C@H](N)C(=O)O; Tle = CC(C)(C)[C@H](N)C(=O)O; X1 = O=C(c1ccnc(Cl)c1Cl)*; AEEA = NCCOCCOCC(=O)O

Tests used:
[1] = Drug distribution in BALB/c mouse plasma at 0.6 mg/kg, iv using compound labelled with cyanine-5 measured after 24 hrs by fluorescence based assay; type: ADME, organism-based; conditions: in vivo
[2] = system: Mus musculus; test: Anti-inflammatory activity in BALB/c mouse model of LPS-induced ALI assessed as reduction in LPS-induced lung wet-to-dry ratios at 3 mg/kg dosed via intranasal instillation pre-treated 2 hrs before LPS stimulation for 6 hrs; type: functional, organism-based; conditions: time 8.0 hrs
[3] = Stability in simulated gastric fluid at 5 uM incubated for 2 hrs by LC/MS/MS analysis
[4] = Drug concentration in BALB/c mouse muscle at 5 mg/kg, iv after 8 hrs by LC-MS/MS analysis; type: ADME, organism-based, Muscle tissue; conditions: in vivo
[5] = system: Mus musculus; test: Anti-inflammatory activity in BALB/c mouse model of LPS-induced ALI assessed as reduction in LPS-induced TNFalpha in BALF at 5 mg/kg, iv pre-treated 4 hrs before LPS stimulation for 16 hrs; type: functional, organism-based; conditions: time 20.0 hrs
[6] = organism: Homo sapiens; test: Inhibition of GST-tagged Calcineurin (unknown origin) assessed as reduction in phosphatase activity at 50 uM incubated for 30 mins using p-nitrophenyl phosphate substrate
[7] = Drug uptake in human HCT-116 cells spheroids at 5 uM incubated for 4 to 24 hrs by MALDI-TOF-TOF mass spectrometry; type: ADME, cell-based; conditions: hct-116, 5 µM, TDE = time-dependent effect, time 4-24 hrs
[8] = system: Mus musculus; test: Anti-inflammatory activity in BALB/c mouse model of LPS-induced ALI assessed as reduction in LPS-induced BALF protein levels at 0.3 to 3 mg/kg dosed via intranasal instillation pre-treated 2 hrs before LPS stimulation for 6 hrs; type: functional
[9] = Drug metabolism in BALB/c mouse liver at 5 mg/kg, iv after 8 hrs by LC-MS/MS analysis; type: ADME, organism-based; conditions: in vivo
[10] = Drug distribution in BALB/c mouse spleen at […], sc using compound labelled with cyanine-5 measured after 24 hrs by fluorescence based assay; type: ADME, organism-based; conditions: in vivo, dose 2.4 mg/kg
[11] = Drug distribution in BALB/c mouse Non-T and B lymphocytes at […], sc using compound labelled with cyanine-5 measured after 24 hrs by flow cytometry; type: ADME, organism-based, Lymphocyte; conditions: in vivo, dose 2.4 mg/kg
[12] = Drug distribution in BALB/c mouse plasma at […], ip using compound labelled with cyanine-5 measured after 24 hrs by fluorescence based assay; type: ADME, organism-based; conditions: in vivo, dose 2.4 mg/kg
[13] = Drug distribution in BALB/c mouse monocytes at […], ip using compound labelled with cyanine-5 measured after 24 hrs by flow cytometry; type: ADME, organism-based, Monocyte; conditions: in vivo, dose 2.4 mg/kg
[14] = Stability in 25% human serum assessed as compound degradation at 5 uM at 37 degC incubated for 24 hrs by HPLC analysis; type: ADME, cell-free; conditions: serum, 24 h, 5 µM
[15] = Drug distribution in BALB/c mouse lung at […], sc using compound labelled with cyanine-5 measured after 24 hrs by fluorescence based assay; type: ADME, organism-based; conditions: dose 2.4 mg/kg, read-out: Drug uptake
[16] = Drug distribution in BALB/c mouse lymph nodes at 0.6 mg/kg, iv using compound labelled with cyanine-5 measured after 24 hrs by fluorescence based assay; type: ADME, organism-based, Lymph node; conditions: read-out: Drug uptake
[17] = Drug distribution in BALB/c mouse monocytes at 0.6 mg/kg, iv using compound labelled with cyanine-5 measured after 24 hrs by flow cytometry; type: ADME, organism-based, Monocyte; conditions: in vivo
[18] = Drug distribution in BALB/c mouse liver at 0.6 mg/kg, iv using compound labelled with cyanine-5 measured after 24 hrs by fluorescence based assay; type: ADME, organism-based; conditions: in vivo
[19] = system: Mus musculus; test: Anti-inflammatory activity in BALB/c mouse model of LPS-induced ALI assessed as reduction in LPS-induced lung wet-to-dry ratios at 3 mg/kg dosed via intranasal instillation pre-treated 2 hrs before LPS stimulation for 6 hrs and measured at 24 hrs; type: functional, organism-based
[20] = system: Mus musculus; test: Anti-inflammatory activity in BALB/c mouse model of LPS-induced ALI assessed as reduction in LPS-induced BALF protein levels at 5 mg/kg, iv pre-treated 4 hrs before LPS stimulation for 16 hrs; type: functional, organism-based; conditions: time 20.0 hrs
[21] = Drug metabolism in BALB/c mouse plasma at 5 mg/kg, iv after 8 hrs by LC-MS/MS analysis; type: ADME, organism-based; conditions: in vivo
[22] = Drug distribution in BALB/c mouse heart at […], ip using compound labelled with cyanine-5 measured after 24 hrs by fluorescence based assay; type: ADME, organism-based; conditions: dose 2.4 mg/kg, read-out: Drug uptake
[23] = system: Mus musculus; test: Anti-inflammatory activity in BALB/c mouse model of LPS-induced ALI assessed as reduction in LPS-induced TNFalpha in lung at 5 mg/kg, iv pre-treated 4 hrs before LPS stimulation for 16 hrs; type: functional; conditions: time 20 hrs
[24] = Drug distribution in BALB/c mouse muscle at […], sc using compound labelled with cyanine-5 measured after 24 hrs by fluorescence based assay; type: ADME, organism-based, Muscle tissue; conditions: in vivo, dose 2.4 mg/kg
[25] = Drug distribution in BALB/c mouse plasma at […], sc using compound labelled with cyanine-5 measured after 24 hrs by fluorescence based assay; type: ADME, organism-based; conditions: in vivo, dose 2.4 mg/kg
[26] = Drug distribution in BALB/c mouse Non-T and B lymphocytes at 0.6 mg/kg, iv using compound labelled with cyanine-5 measured after 24 hrs by flow cytometry; type: ADME, organism-based, Lymphocyte; conditions: in vivo
[27] = Drug distribution in BALB/c mouse kidney at […], ip using compound labelled with cyanine-5 measured after 24 hrs by fluorescence based assay; type: ADME, organism-based; conditions: in vivo, dose 2.4 mg/kg
[28] = Drug distribution in BALB/c mouse pancreas at […], ip using compound labelled with cyanine-5 measured after 24 hrs by fluorescence based assay; type: ADME, organism-based; conditions: dose 2.4 mg/kg, read-out: Drug uptake
[29] = Toxicity in mouse lung macrophages cells assessed as reduction in cell viability up to 25 uM incubated for 72 hrs by MTT assay; type: tissue-based; conditions: macrophage
[30] = Drug distribution in BALB/c mouse spleen at […], ip using compound labelled with cyanine-5 measured after 24 hrs by fluorescence based assay; type: ADME, organism-based; conditions: in vivo, dose 2.4 mg/kg
[31] = system: Macrophage; test: Inhibition of calcineurin-NFATc3 interaction in mouse lung macrophages assessed as reduction in LPS-induced IL6 production at 1 uM pre-incubated 4 hrs before LPS stimulation for 8 hrs by ELISA relative to 10 uM CsA; type: tissue-based; conditions: time 12.0 hrs
[32] = system: Mus musculus; test: Anti-inflammatory activity in BALB/c mouse model of LPS-induced ALI assessed as reduction in LPS-induced IL6 in BALF at 3 mg/kg dosed via intranasal instillation pre-treated 2 hrs before LPS stimulation for 6 hrs and measured at 24 hrs; type: functional, organism-based
[33] = Drug metabolism in BALB/c mouse kidney at 5 mg/kg, iv after 8 hrs by LC-MS/MS analysis; type: ADME, organism-based; conditions: in vivo
[34] = Drug distribution in BALB/c mouse liver at […], ip using compound labelled with cyanine-5 measured after 24 hrs by fluorescence based assay; type: ADME, organism-based; conditions: in vivo, dose 2.4 mg/kg
[35] = Drug distribution in BALB/c mouse neutrophils at 0.6 mg/kg, iv using compound labelled with cyanine-5 measured after 24 hrs by flow cytometry; type: ADME, organism-based, Neutrophil; conditions: in vivo
[36] = Drug distribution in BALB/c mouse pancreas at […], sc using compound labelled with cyanine-5 measured after 24 hrs by fluorescence based assay; type: ADME, organism-based; conditions: dose 2.4 mg/kg, read-out: Drug uptake
[37] = Drug distribution in BALB/c mouse lymph nodes at […], sc using compound labelled with cyanine-5 measured after 24 hrs by fluorescence based assay; type: ADME, organism-based, Lymph node; conditions: dose 2.4 mg/kg, read-out: Drug uptake
[38] = Drug distribution in BALB/c mouse heart at […], sc using compound labelled with cyanine-5 measured after 24 hrs by fluorescence based assay; type: ADME, organism-based; conditions: dose 2.4 mg/kg, read-out: Drug uptake

Structure (SMILES): CC[C@H](C)[C@H](NC(=O)[C@@H](NC(=O)c1ccnc(Cl)c1Cl)C(C)(C)C)C(=O)N[C@H](C(=O)N[C@H](C(=O)N[C@H](C(=O)N[C@@H](CCC(N)=O)C(=O)N[C@@H](Cc1c[nH]cn1)C(=O)N[C@H](CC(C)C)C(=O)N[C@@H](CO)C(=O)NCCOCCOCC(=O)N[C@@H](CCCCNC(=O)CC[C@@H]1NC(=O)[C@@H](CCCNC(=N)N)NC(=O)[C@H](CCCNC(=N)N)NC(=O)[C@@H](CCCNC(=N)N)NC(=O)[C@H](CCCNC(=N)N)NC(=O)[C@H](Cc2ccc3ccccc3c2)NC(=O)[C@@H](Cc2ccccc2)NC1=O)C(N)=O)[C@@H](C)O)[C@@H](C)CC)C(C)(C)O (I: X1-[Tle]I[Val(3-OH)]ITQH[dL]S[AEEA]K-NH2 / II: cyclo([2Nal]R[dR]R[dR]E[dF]); amide I:11-II:6)
- Drug uptake [1]: Not Active
- Activity [2]: Active
- Stability [3]: Stable
- Drug uptake [4]: Not Active
- Activity [5]: Active
- inhibition [6]: inactive
- Drug uptake [7]: Tde
- Activity ([8]; dose mg/kg 0.3-3, time 8.0 hrs): Dose-dependent effect
- minimal effective dose ([8]; dose mg/kg 0.3-3, time 8 hrs, read-out: MED): 1 mg/kg
- Drug metabolism [9]: Metabolite_Detected
- Drug uptake [10]: Active
- Drug uptake [11]: Active
- Drug uptake [12]: Not Active
- Drug uptake [13]: Active
- Stabilty [14]: Stable
- concentration at 24 h [15]: > 50 nM
- concentration at 24 h [16]: > 50 nM
- Drug uptake [17]: Active
- Drug uptake [18]: Active
- Activity [19]: inactive
- Activity [20]: Active
- Drug metabolism [21]: Metabolite_Detected
- concentration at 24 h [22]: > 50 nM
- inhibition in vivo at 5 mg/kg [23]: 100%
- Drug uptake [24]: Not Active
- Drug uptake [25]: Not Active
- Drug uptake [26]: Active
- Drug uptake [27]: Active
- concentration at 24 h [28]: > 50 nM
- Activity [29]: Non-Toxic
- Drug uptake [30]: Active
- fold change (FC) [31]: 10
- Activity [32]: inactive
- Drug metabolism [33]: Metabolite_Detected
- Drug uptake [34]: Active
- Drug uptake [35]: Active
- concentration at 24 h [36]: > 50 nM
- concentration at 24 h [37]: > 50 nM
- concentration at 24 h [38]: > 50 nM
